One assay concerns PC-9 (Δ19del) xenograft. As to the kind of experiment: In vivo pharmacodynamics study (2): PC-9 (Δ19del) subcutaneously transplanted tumor in mouse. Particulars: 50 mg/kg (days 0-9); for Tumor volume Day 0 / Tumor volume Day 2 / Tumor volume Day 6 / Tumor volume Day 9 / Tumor volume Day 13 / Tumor volume Day 16 / Tumor volume Day 20 / Tumor volume Day 23: 25 mg/kg (days 10-21) oral once a day. On the procedure: 1. Cell culture: lung cancer PC-9 cells were monolayer cultured in vitro, culture conditions: RPMI-1640 (cell culture medium) plus 10% fetal bovine serum, 100 U/mL penicillin and 100 μg/mL streptomycin, culture in a 5% CO2 incubator at 37° C. The cells were conventionally digested with trypsin-EDTA twice a week for passage. When the cell saturation was 80%-90%, and the number reached the requirements, the cells were collected and counted. The density was 5×10^6 cells.
2. Cell inoculation: 0.2 mL (containing 5×10^6 cells) of PC-9 cell suspension (PBS: Matrigel=1:1) was subcutaneously inoculated into the right back of each mouse, with a total of 64 mice. On Day 7 after inoculation, when the average tumor volume measured reached 169 mm^3, the animals were randomly hierarchically grouped based on tumor volume and animal weight, and started to administrate each group. PBS was a phosphate buffer solution, and Matrigel was a matrix.
3. Administration: dosage: Days 0-9: 50 mg/kg; Days 10-21: 25 mg/kg; oral administration; administration frequency: once a day×3 weeks.
Tumor Measurement and Experimental Indicators
Tumor diameter was measured twice a week with a vernier caliper.
The antitumor effect of the compound was evaluated by TGI (%).
The relative tumor volume (RTV) was calculated according to the results of tumor measurement. The calculation formula was RTV=Vt/V0, wherein V0 was the tumor volume measured during group administration (i.e., DO), and Vt was the tumor volume of the corresponding mice measured at a certain time. The data on the same day were taken for TRTV and CRTV.
TGI (%) reflected tumor growth inhibition rate.
After the end of the experiments, the tumor weight would be measured and the TGI (%) was calculated.

For another assay, the target named is EGFR (C797S/T790M/L858R) (Homo sapiens (Human), UniProt P00533, C797S/L858R/T790M). Kind of assay: Enzyme activity experiment (2): EGFR (C797S/T790M/L858R) enzyme inhibition. The format is biochemical. As for the experimental part:
(§1) 1. Gradient Dilution of the Compound:
(§2) The dilution and transfer of the compounds were completed by Echo by Labcyte Inc., with a three-fold concentration gradient, a total of 11 dose points, and 100 nL of the compounds per well. The maximum concentration of the test compounds in the kinase reaction solutions was 1000 nM. The maximum concentration of the reference compound (Crizotinib & AP26113) in the kinase reaction solution was 1000 nM. The maximum concentration of the reference compound (AZD9291) in the kinase reaction solution was 300 nM.
(§3) The plate was centrifuged at a speed of 1000 rpm for 60 seconds. The test plate was incubated at 23° C. for 15 minutes.
(§4) (3) The test plate was film sealed and incubated at 23° C. for 90 minutes.
(§5) (4) The test plate was added with 2× detection solution (4 nM TK antibody and 125 nM XL665), 10 μL per well, and centrifuged at a speed of 1000 rpm for 60 seconds, and film sealed, which was incubated at 23° C. for 60 minutes.
(§6) (5) The plate was read on the Multi-Mark Detector Envision.

In another assay the target is EGFR (WT) (Homo sapiens (Human), UniProt P00533). Kind of assay: Enzyme activity experiment (2): EGFR WT enzyme inhibition. The format is biochemical. As for the experimental part: as §1, §2, §3, §4, §5, §6
The target of assay [1] is EGFR (Δ19del/T790M/C797S) (Homo sapiens, UniProt P00533, C797S/T790M, form not given). Kind of assay: Enzyme activity experiment (1): EGFR (Δ19del/T790M/C797S) enzyme inhibition. The assay is classed as biochemical. Particulars: read-out: EGFR (Δ19del/T790M/C797S) IC50. On the procedure: 1) 10 μL of the compounds to be tested and reference compounds diluted to 10 mM were taken into an Echo LDV plate, which were diluted according to the compound profile with Echo.
1) 1×enzyme reaction buffer was prepared: 1× enzyme buffer, 5 mM MgCl2, 1 mM DTT (dithiothreitol), water.
2) A mixed solution of 10 nM enzyme (final concentration of 5 nM) and 2 μM substrate (final concentration of 1 μM) and a solution containing the substrate alone were prepared with the diluted enzyme reaction buffer.
3) 5 μL of the substrate was added into A1-H1, J24-P24 (the number of the well position), and 5 μL of the mixture of the enzyme and substrate was added into the remaining wells.
4) Centrifugation was performed at 1000 rpm at 23° C. for 30 s.
5) Incubation was performed at 23° C. for 15 min.
7) Centrifugation was performed at 1000 rpm at 23° C. for 30 s.
8) Incubation was performed at 23° C. for 60 min.
9) 10 μL of 250 nM TK Antibody-Crypate (a final concentration of 125 nM) and 1×D2 (a final concentration ½ time) prepared with Detection buffer were added.
10) Centrifugation was performed at 1000 rpm at 23° C. for 30 s.
11) Incubation was performed at 23° C. for 60 min.
12) The data was read with Envision, and the ratio was calculated to obtain the IC50 of the compound for inhibiting the enzyme activity.

EGFR (Δ19del/T790M/C797S), sequence (P00533 25-1210 T790M/C797S limits assumed, form open): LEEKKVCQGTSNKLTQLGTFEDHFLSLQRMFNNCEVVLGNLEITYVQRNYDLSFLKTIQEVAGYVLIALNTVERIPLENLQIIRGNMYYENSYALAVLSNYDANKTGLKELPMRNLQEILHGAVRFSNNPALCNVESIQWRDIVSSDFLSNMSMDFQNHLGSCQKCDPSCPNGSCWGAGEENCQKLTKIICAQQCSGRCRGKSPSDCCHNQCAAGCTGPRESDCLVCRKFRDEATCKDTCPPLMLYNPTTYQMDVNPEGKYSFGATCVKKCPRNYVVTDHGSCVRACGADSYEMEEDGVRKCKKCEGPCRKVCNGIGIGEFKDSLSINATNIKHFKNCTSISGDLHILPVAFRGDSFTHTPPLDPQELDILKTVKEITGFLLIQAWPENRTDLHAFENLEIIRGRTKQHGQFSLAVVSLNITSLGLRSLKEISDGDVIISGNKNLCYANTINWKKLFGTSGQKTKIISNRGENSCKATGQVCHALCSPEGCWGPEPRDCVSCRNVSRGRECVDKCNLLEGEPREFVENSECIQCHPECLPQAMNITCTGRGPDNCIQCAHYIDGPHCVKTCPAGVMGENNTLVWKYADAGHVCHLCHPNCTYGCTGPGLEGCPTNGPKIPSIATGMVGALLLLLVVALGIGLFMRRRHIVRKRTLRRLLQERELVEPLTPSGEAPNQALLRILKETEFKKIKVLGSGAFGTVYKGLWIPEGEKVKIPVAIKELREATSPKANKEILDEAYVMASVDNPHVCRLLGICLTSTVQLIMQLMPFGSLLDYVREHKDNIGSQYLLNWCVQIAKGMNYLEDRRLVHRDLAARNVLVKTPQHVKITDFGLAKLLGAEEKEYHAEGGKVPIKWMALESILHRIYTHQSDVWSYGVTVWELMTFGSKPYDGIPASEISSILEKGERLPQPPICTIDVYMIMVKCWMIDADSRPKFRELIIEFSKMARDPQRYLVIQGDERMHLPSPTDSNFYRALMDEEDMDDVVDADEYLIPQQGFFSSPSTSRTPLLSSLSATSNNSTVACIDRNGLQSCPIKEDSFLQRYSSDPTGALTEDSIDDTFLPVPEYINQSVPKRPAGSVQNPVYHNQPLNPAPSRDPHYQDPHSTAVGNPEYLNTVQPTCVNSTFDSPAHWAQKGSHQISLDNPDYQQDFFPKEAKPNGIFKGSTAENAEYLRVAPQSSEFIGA
EGFR (C797S/T790M/L858R), sequence (P00533 25-1210 T790M/C797S/L858R): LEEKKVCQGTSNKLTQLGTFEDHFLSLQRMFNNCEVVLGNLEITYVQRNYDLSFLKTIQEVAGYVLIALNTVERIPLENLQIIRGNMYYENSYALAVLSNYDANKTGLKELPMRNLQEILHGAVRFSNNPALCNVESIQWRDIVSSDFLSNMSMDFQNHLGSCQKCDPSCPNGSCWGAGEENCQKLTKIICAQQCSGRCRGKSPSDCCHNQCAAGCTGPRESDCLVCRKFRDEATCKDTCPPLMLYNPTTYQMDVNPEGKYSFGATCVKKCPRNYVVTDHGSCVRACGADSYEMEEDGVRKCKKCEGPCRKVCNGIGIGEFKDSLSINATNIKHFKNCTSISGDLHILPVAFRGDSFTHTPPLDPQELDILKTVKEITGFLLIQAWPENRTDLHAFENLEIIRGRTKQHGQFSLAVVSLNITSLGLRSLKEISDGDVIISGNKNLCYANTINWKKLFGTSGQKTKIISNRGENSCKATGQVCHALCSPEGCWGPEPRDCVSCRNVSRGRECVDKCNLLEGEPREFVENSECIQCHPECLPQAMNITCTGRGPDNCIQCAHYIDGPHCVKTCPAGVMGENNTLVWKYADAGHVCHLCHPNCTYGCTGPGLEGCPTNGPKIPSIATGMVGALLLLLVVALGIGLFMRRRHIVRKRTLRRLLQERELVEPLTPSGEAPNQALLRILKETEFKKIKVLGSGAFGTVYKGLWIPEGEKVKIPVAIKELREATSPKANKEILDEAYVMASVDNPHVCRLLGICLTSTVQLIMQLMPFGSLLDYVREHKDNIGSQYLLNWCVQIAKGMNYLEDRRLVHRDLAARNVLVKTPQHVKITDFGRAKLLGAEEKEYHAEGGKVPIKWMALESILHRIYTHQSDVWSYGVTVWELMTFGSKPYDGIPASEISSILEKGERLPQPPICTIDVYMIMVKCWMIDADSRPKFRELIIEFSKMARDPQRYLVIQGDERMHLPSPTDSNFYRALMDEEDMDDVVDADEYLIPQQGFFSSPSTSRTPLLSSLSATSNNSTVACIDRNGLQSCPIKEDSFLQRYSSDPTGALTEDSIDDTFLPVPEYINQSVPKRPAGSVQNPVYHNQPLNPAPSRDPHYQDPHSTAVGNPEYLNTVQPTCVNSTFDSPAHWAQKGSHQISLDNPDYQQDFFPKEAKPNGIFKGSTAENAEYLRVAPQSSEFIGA
EGFR (WT), sequence (P00533 25-1210): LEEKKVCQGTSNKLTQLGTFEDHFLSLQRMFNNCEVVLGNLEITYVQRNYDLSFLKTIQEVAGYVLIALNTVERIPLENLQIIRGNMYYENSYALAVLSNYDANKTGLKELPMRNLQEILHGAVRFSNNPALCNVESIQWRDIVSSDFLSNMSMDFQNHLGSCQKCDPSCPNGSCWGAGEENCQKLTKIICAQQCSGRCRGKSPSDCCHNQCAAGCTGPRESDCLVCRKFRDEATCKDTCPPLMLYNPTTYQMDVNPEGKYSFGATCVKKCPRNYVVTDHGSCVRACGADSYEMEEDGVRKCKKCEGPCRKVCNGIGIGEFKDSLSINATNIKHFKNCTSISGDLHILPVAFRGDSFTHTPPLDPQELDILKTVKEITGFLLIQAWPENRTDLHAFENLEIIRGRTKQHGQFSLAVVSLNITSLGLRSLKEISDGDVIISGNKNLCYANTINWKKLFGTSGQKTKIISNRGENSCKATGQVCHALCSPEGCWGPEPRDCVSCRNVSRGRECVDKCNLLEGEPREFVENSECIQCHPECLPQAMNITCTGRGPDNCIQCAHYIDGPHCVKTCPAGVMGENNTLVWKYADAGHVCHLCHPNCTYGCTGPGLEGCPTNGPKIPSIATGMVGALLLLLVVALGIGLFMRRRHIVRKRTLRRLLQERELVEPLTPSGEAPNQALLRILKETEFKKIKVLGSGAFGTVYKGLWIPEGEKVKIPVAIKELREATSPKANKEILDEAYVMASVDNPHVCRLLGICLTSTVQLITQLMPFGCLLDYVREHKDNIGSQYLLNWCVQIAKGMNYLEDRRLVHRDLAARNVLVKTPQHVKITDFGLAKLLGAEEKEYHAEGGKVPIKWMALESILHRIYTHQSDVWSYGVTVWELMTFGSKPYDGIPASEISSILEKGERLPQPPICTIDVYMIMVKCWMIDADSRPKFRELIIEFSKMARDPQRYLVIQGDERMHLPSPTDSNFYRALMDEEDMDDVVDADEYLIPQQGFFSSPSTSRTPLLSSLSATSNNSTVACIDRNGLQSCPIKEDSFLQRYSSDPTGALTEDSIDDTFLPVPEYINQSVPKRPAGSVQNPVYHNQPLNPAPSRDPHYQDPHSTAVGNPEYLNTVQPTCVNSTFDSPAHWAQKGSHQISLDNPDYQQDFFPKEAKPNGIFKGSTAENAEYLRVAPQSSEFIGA

One may read the TGI as how far tumour growth fell short of that in controls. Read a low TGI as little slowing of growth. On to `COc1cc(N2CCC(N3CCN(C)CC3)CC2)c(C)cc1Nc1ncc(Br)c(Nc2ccc3nccnc3c2P(C)(C)=O)n1` [Compound 34], for which, in the assay on PC-9 (Δ19del) xenograft, the “Tumor volume Day 0” value is reported as 185 mm^3, the “Tumor volume Day 2” value is listed as 198 mm^3, the “Tumor volume Day 6” value worked out at 92 mm^3 and the “Tumor volume Day 9” value was 75 mm^3. Besides, in the assay with PC-9 (Δ19del) xenograft, the “Tumor volume Day 13” value was 40 mm^3, the “Tumor volume Day 16” value came to 45 mm^3, the “Tumor volume Day 20” value was 76 mm^3 and the “Tumor volume Day 23” value is recorded as 111 mm^3. Also, the TGI in the assay with PC-9 (Δ19del) xenograft (day 23, 25 mg/kg (days 10-21) oral) is reported as 100%.
Consider `CCc1cc(Nc2ncc(Br)c(Nc3ccc4nccnc4c3P(C)(C)=O)n2)c(OC)cc1N1CCC(N2CCN(C)CC2)CC1` [Compound 41], for which the IC50 on EGFR (C797S/T790M/L858R) amounted to 0.26 nM. The IC50 against EGFR (WT) is 5.12 nM. In the assay with PC-9 (Δ19del) xenograft, the “Tumor volume Day 0” value worked out at 184 mm^3, the “Tumor volume Day 2” value came to 198 mm^3, the “Tumor volume Day 6” value worked out at 54 mm^3 and the “Tumor volume Day 9” value worked out at 44 mm^3. In the assay on PC-9 (Δ19del) xenograft, the “Tumor volume Day 13” value is listed as 36 mm^3, the “Tumor volume Day 16” value is recorded as 30 mm^3, the “Tumor volume Day 20” value was determined as 37 mm^3 and the “Tumor volume Day 23” value came to 42 mm^3. In assay [1], the IC50 was determined as 0.212 nM.

(Values after patent US11390625B2, “Aryl-phosphorus-oxygen compound as EGFR kinase inhibitor” (Chia Tai Tianqing Pharmaceutical Group Co., Ltd., priority 2017, dated 2022).)
